Reference: US7759345B2, “Antitumoral derivatives of ET-743” (priority 2001, dated 2010)
Read-outs that look alike come from different tables or passages of the source.

What was measured:
A-549 = assay: Inhibition of cells growth by colorimetric assay (SRB), A-549; type: cell-based; settings: for GI50 / LC50 (concentration for 50% cell killing): Homo sapiens, A549, 48 h; for GI50: read-out: A-549 GI50; for LC50 (concentration for 50% cell killing): read-out: A-549 LC50, SRB assay, 48 hours exposure
Summary of the method: (§1)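 Compound in DMSO/EtOH/PBS vehicle was applied at 10 to 10^−8 μg/ml to attached cells (5×10^3/well, 18 h) for 48 h. Cells were then fixed with cold TCA and stained with 0.4% SRB in 1% acetic acid.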

SK-MEL-28 = assay: Inhibition of cells growth by colorimetric assay (SRB), SK-MEL-28; type: cell-based; settings: for GI50 / CC50: Homo sapiens, SK-MEL-28, 48 h; for GI50 / MEL-28 TGI: SRB assay, 48 hours exposure; for GI50: read-out: MEL-28 GI50; for CC50: read-out: MEL-28 LC50, SRB assay, 48 hours exposure
Summary of the method: as §1

HT-29 = assay: Inhibition of cells growth by colorimetric assay (SRB), HT-29; type: cell-based; settings: for GI50 / LC50 (concentration for 50% cell killing): Homo sapiens, HT-29, 48 h; for GI50 / HT-29 TGI: SRB assay, 48 hours exposure; for GI50: read-out: HT-29 GI50; for LC50 (concentration for 50% cell killing): read-out: HT-29 LC50, SRB assay, 48 hours exposure
Summary of the method: as §1

SW620 = assay: Inhibition of cells growth by colorimetric assay (SRB), SW620; type: cell-based; settings: for GI50 / LC50: Homo sapiens; for GI50: read-out: SW-620 GI50; for LC50: read-out: SW-620 LC50
Protocol: (§2) 2°.—Inhibition of Cells Growth by Colorimetric Assay.
(§3) A colorimetric type of assay, using sulforhodamine B (SRB) reaction has been adapted for a quantitative measurement of cell growth and viability [following the technique described by Philip Skehan, et al. (1990), New colorimetric cytotoxicity assay for anticancer drug screening, J. Natl. Cancer Inst., 82:1107-1112]
(§4) This form of the assay employs 96 well cell culture microplates of 9 mm diameter (Faircloth, 1988; Mosmann, 1983). Most of the cell lines are obtained from American Type Culture Collection (ATCC) derived from different human cancer types.
(§5) Cells are maintained in RPMI 1640 10% FBS, supplemented with 0.1 g/l penicillin and 0.1 g/l streptomycin sulfate and then incubated at 37° C., 5% CO2 and 98% humidity. For the experiments, cells were harvested from subconfluent cultures using trypsin and resuspended in fresh medium before plating.
(§6) Cells are seeded in 96 well microtiter plates, at 5×10^3 cells per well in aliquots of 195 μl medium, and they are allowed to attach to the plate surface by growing in drug free medium for 18 hours. Afterward, samples are added in aliquots of 5 μl in a ranging from 10 to 10^−8 μg/ml, dissolved in DMSO/EtOH/PBS (0.5:0.5:99). After 48 hours exposure, the antitumor effect are measured by the SRB methodology: cells are fixed by adding 50 μl of cold 50% (wt/vol) trichloroacetic acid (TCA) and incubating for 60 minutes at 4° C. Plates are washed with deionized water and dried. One hundred μl of SRB solution (0.4% wt/vol in 1% acetic acid) is added to each microtiter well and incubated for 10 minutes at room temperature. Unbound SRB is removed by washing with 1% acetic acid. Plates are air dried and bound stain is solubilized with Tris buffer. Optical densities are read on a automated spectrophotometric plate reader at a single wavelength of 490 nm.
(§7) The values for mean+/−SD of data from triplicate wells are calculated. Some parameters for cellular responses can be calculated: GI=growth inhibition, TGI=total growth inhibition (cytostatic effect) and LC=cell killing (cytotoxic effect).
(§8) Obtained results may predict the usefulness of a certain drug as a potential cancer treatment. For this technique, compounds which show GI50 values smaller than 10 μg/ml are selected to continue with further studies. GI50's data allow to predict that not only could a drug be cystostatic, but also it could have a potential in terms of tumor reduction.

DU-145 = assay: Inhibition of cells growth by colorimetric assay (SRB), DU-145; type: cell-based; settings: for GI50 / CC50: Homo sapiens, DU-145, 48 h; for GI50 / DU-145 TGI: SRB assay, 48 hours exposure; for GI50: read-out: DU-145 GI50; for CC50: read-out: DU-145 LC50, SRB assay, 48 hours exposure
Summary of the method: as §1

MCF-7 = assay: Inhibition of cells growth by colorimetric assay (SRB), MCF-7; type: cell-based; settings: for GI50 / CC50: Homo sapiens; for GI50: read-out: MCF GI50; for CC50: read-out: MCF LC50
Protocol: as §2, §3, §4, §5, §6, §7, §8

MDA-MB-231 = assay: Inhibition of cells growth by colorimetric assay (SRB), MDA-MB-231; type: cell-based; settings: for CC50 / GI50: Homo sapiens; for CC50: MDA-MB-231, 48 h, read-out: MB-231 LC50; for GI50: MDA-MB-231, read-out: MB-231 GI50; for GI50 / MB-231 TGI: SRB assay, 48 hours exposure
Protocol: as §2, §3, §4, §5, §6, §7, §8

A-498 = assay: Inhibition of cells growth by colorimetric assay (SRB), A-498; type: cell-based; settings: for LC50 / GI50: Homo sapiens; for LC50: A498, 48 h, read-out: A-498 LC50; for GI50: A498, read-out: A-498 GI50; for GI50 / A-498 TGI: SRB assay, 48 hours exposure
Protocol: as §2, §3, §4, §5, §6, §7, §8

OVCAR-3 = assay: Inhibition of cells growth by colorimetric assay (SRB), OVCAR-3; type: cell-based
Protocol: as §2, §3, §4, §5, §6
The values for mean+/−SD of data from triplicate wells are calculated. Some parameters for cellular responses can be calculated: GI=growth inhibition, TGI=total growth inhibition (cytostatic effect) and LC=cell killing (cytotoxic effect). […]

[1] = MCF7, SRB assay, 48 hours exposure

Description for Heart: (§9) Toxicity was asssessed by the methods reported in Toxicology in Vitro, 15 (2001) 571-577, J. Luber Narod et al.: “Evaluation of the use of in vitro methodolodies as tools for screening new compounds for potential in vivo toxicity”.
Description for Kidney: as §9
Description for Liver: as §9
Description for Myelo: as §9
Description for Skeletal: as §9

Compound | LC50 (concentration for 50% cell killing) (A-549) [nM] | A-549 TGI (A-549; SRB assay, 48 hours exposure) | GI50 (SK-MEL-28) [nM] | CC50 (SK-MEL-28) [nM] | MEL-28 TGI (SK-MEL-28) | GI50 (HT-29) [nM] | LC50 (concentration for 50% cell killing) (HT-29) [nM] | HT-29 TGI (HT-29) | LC50 (SW620; SW-620, 48 h) [nM] | SW-620 TGI (SW620; SRB assay, 48 hours exposure) | GI50 (DU-145) [nM] | CC50 (DU-145) [nM] | DU-145 TGI (DU-145) | CC50 (MCF-7; MCF7, 48 h) [nM] | MCF TGI (MCF-7; SRB assay, 48 hours exposure) | CC50 (MDA-MB-231) [nM] | GI50 (MDA-MB-231) [nM] | MB-231 TGI (MDA-MB-231) | LC50 (A-498) [nM] | GI50 (A-498) [nM] | further results
COc1cc2c(cc1OC(=O)OC(C)(C)C)CCN[C@]21CS[C@@H]2c3c(OC(=O)OC(C)(C)C)c(C)c4c(c3[C@H](COC1=O)N1C2[C@H]2c3c(cc(C)c(OC)c3O)C[C@@H]([C@@H]1O)N2C)OCO4 (stereo partly drawn) [Compound 173] | 10.9 | 4.35E-09 | 2.17 | 10.9 | 5.43E-09 | 2.17 | 9.78 | 6.52E-09 | 21.7 | 6.52E-09 | 1.09 | 3.26 | 2.17E-09 | 109 | 9.78E-09 | 21.7 | 2.17 | 7.61E-09 | 21.7 | 2.17 | GI50 (A-549): 3.26 nM; GI50 (SW620; SW-620, 48 h): 3.26 nM; GI50 (MCF-7; MCF7, 48 h): 3.26 nM; A-498 TGI (A-498): 4.35E-09; Toxicity Data Liver (Liver): 4.03E-08; Toxicity Data Heart (Heart): 1.19E-07; Toxicity Data Myelo (Myelo): 4.98E-06; Toxicity Data Skeletal (Skeletal): 2.49E-06; Toxicity Data Kidney (Kidney): 7.09E-08
COc1cc2c(cc1O)CCN[C@]21CS[C@@H]2c3c(OC)c(C)c4c(c3[C@H](COC1=O)N1C2[C@H]2c3c(cc(C)c(OC)c3O)C[C@@H]([C@@H]1O)N2C)OCO4 (stereo partly drawn) [Compound 182] | 68.1 | 1.36E-09 | 0.409 | 5.45 | 1.36E-09 | 0.272 | 1.36 | 1.09E-09 | 13.6 | 4.09E-09 | 0.272 | 1.09 | 4.09E-10 | 13.6 | 5.45E-09 | 8.17 | 0.272 | 6.81E-10 | 5.45 | 0.409 | GI50 (A-549; SRB assay, 48 hours exposure): 0.409 nM; GI50 (SW620; SW-620, 48 h): 1.09 nM; GI50 (MCF-7; [1]): 2.72 nM; A-498 TGI (A-498): 1.36E-09; Toxicity Data Liver (Liver): 3.98E-09; Toxicity Data Heart (Heart): 3.95E-08; Toxicity Data Myelo (Myelo): 3.19E-08; Toxicity Data Skeletal (Skeletal): 1.49E-08; Toxicity Data Kidney (Kidney): 1.26E-08
COc1cc2c(cc1OC(=O)/C=C/c1ccccc1)CCN[C@]21CS[C@@H]2c3c(OC(C)=O)c(C)c4c(c3[C@H](COC1=O)N1C2[C@@H]2N[C@@H](Cc3cc(C)c(OC)c(O)c32)[C@@H]1O)OCO4 (stereo partly drawn) [Compound 212] | 114 | 2.28E-08 | 1.14 | 9.11 | 3.42E-09 | 2.28 | 11.4 | 4.56E-09 | 2280 | 1.14E-08 | 0.114 | 11.4 | 6.83E-10 | 342 | 1.14E-08 | 114 | 0.228 | 5.69E-09 | 1140 | 2.28 | GI50 (A-549): 9.11 nM; GI50 (SW620; SW-620, SRB assay, 48 hours exposure): 0.0228 nM; GI50 (MCF-7; [1]): 0.342 nM; CC50 (OVCAR-3; Homo sapiens, OVCAR-3, 48 h, read-out: OVCAR LC50): 2280 nM; GI50 (OVCAR-3; Homo sapiens, OVCAR-3, SRB assay, 48 hours exposure): 0.342 nM; OVCAR TGI (OVCAR-3; SRB assay, 48 hours exposure): 3.42E-09; A-498 TGI (A-498): 1.14E-08; Toxicity Data Liver (Liver): 8.68E-08; Toxicity Data Heart (Heart): 3.20E-08; Toxicity Data Myelo (Myelo): 8.58E-09; Toxicity Data Skeletal (Skeletal): 2.21E-08; Toxicity Data Kidney (Kidney): 3.34E-09
